Structures can show the parent of a compound that is named as a salt.
assay: Particle Size Distribution (PSD) by Laser Diffraction Spectrometry (Malvern Mastersizer 2000); assay type: physicochemical; settings: sample in heptane with 0.2% Span-20, by volume
Procedure: Laser Diffraction Spectrometry (LDS) was used to determine the Particle Size Distribution (PSD). The samples were prepared by mixing 100 mg of asenapine maleate with 5 mL of heptane that contains 0.2% of Span-20. Ultrasonic treatment of the samples was performed for 5 minutes and the PSD was analysed using a particle size analyzer Malvern Mastersizer 2000. Refractive index of asenapine 1.800 and absorption 0.01.

| Structure (SMILES) | PSD d90 | PSD d95 |
| --- | --- | --- |
| CN1C[C@@H]2c3ccccc3Oc3ccc(Cl)cc3[C@H]2C1 (racemic) [Example 1, asenapine maleate] | 16 μm | 24 μm |
| CN1C[C@@H]2c3ccccc3Oc3ccc(Cl)cc3[C@H]2C1 (racemic) [Example 2, asenapine maleate] | 15 μm | 20 μm |
| CN1C[C@@H]2c3ccccc3Oc3ccc(Cl)cc3[C@H]2C1 (racemic) [Example 3, asenapine maleate] | 31 μm | 37 μm |
| CN1C[C@@H]2c3ccccc3Oc3ccc(Cl)cc3[C@H]2C1 (racemic) [Example 4, asenapine maleate] | 21 μm | 28 μm |
| CN1C[C@@H]2c3ccccc3Oc3ccc(Cl)cc3[C@H]2C1 (racemic) [Example 5, asenapine maleate] | 29 μm | 35 μm |
| CN1C[C@@H]2c3ccccc3Oc3ccc(Cl)cc3[C@H]2C1 (racemic) [Example 6, asenapine maleate] | 46 μm | 56 μm |
| CN1C[C@@H]2c3ccccc3Oc3ccc(Cl)cc3[C@H]2C1 (racemic) [Example 7, asenapine maleate] | 36 μm | 48 μm |
| CN1C[C@@H]2c3ccccc3Oc3ccc(Cl)cc3[C@H]2C1 (racemic) [Example 8, asenapine maleate] | 54 μm | 68 μm |
| CN1C[C@@H]2c3ccccc3Oc3ccc(Cl)cc3[C@H]2C1 (racemic) [Example 9, asenapine maleate] | 23 μm | 28 μm |
| CN1C[C@@H]2c3ccccc3Oc3ccc(Cl)cc3[C@H]2C1 (racemic) [Example 10, asenapine maleate] | 37 μm | 49 μm |
| CN1C[C@@H]2c3ccccc3Oc3ccc(Cl)cc3[C@H]2C1 (racemic) [Example 11, asenapine maleate] | 17 μm | 21 μm |
| CN1C[C@@H]2c3ccccc3Oc3ccc(Cl)cc3[C@H]2C1 (racemic) [Example 12, asenapine maleate] | 53 μm | 120 μm |
| CN1C[C@@H]2c3ccccc3Oc3ccc(Cl)cc3[C@H]2C1 (racemic) [Example 13, asenapine maleate] | 31 μm | 38 μm |

assay: Outcome of micronisation of asenapine maleate crystals; assay type: physicochemical; settings: micronised crystals, prepared as disclosed in U.S. Pat. No. 4,145,434
Procedure: As described in Funke et al., Arzneim.-Forsch./Drug Res., 40:536-539 (1990), asenapine maleate (Form H) was the first known polymorphic form. Form H is a monoclinic crystalline form having a melting point in the range of 141° C. to 145° C. EP 1 710 245 B1 and EP 1 917 267 B1 described the discovery of a new form of asenapine maleate (Form L), which is an orthorhombic crystalline form having a melting point in the range of 138° C. to 142° C. EP 1 710 245 131 and EP 1 917 267 B1 mention the importance of asenapine particle size since asenapine commercial sublingual tablets are dissolved in the mouth. Thus, particles having a size distribution characterized by a d95 (95% volume of the particles are smaller than or equal to the indicated size) of about 100 μm or less, more preferably about 50 μm or less, and even more preferably about 30 μm or less, is desirable for sublingual formulations. According to EP 1 710 245 B1 and EP 1 917 267 B1, the outcome of the micronisation process used therein, and which is necessary to reduce the particle size of crystals, appeared to be unpredictable when crystals of monoclinic form of asenapine maleate were subjected to the micronisation process. […]

| Structure (SMILES) | polymorphic stability after micronisation |
| --- | --- |
| CN1C[C@@H]2c3ccccc3Oc3ccc(Cl)cc3[C@H]2C1 (racemic) [monoclinic form of asenapine maleate, asenapine maleate] | not stable and eventually evolved to the orthorhombic crystalline form |

assay: not given; settings: micronised, per EP 1 710 245 B1 and EP 1 917 267 B1; cited from earlier work

| Structure (SMILES) | d95 after micronisation |
| --- | --- |
| CN1C[C@@H]2c3ccccc3Oc3ccc(Cl)cc3[C@H]2C1 (racemic) [asenapine maleate] | ≤ 30 μm |
